Assay results published in US20260125372A1, “DYNAMIN-1-LIKE PROTEIN INHIBITORS AND USES THEREOF” (Astellas Engineered Small Molecules US, Incorporated, priority 2022, published 2026).

What follows are compounds tested against T1, DRP1 (Homo sapiens, UniProt O00429) (assay: AlphaLISA assay (His-DRP1 / MiD49-GST interaction)). Settings: His-DRP1 200 nM, MiD49-GST 20 nM, GMP-PNP 100 uM.
T1 construct: Human DRIP1 (UniProtID: O00429.4, residues 1-699); made in house; host or cells: Escherichia coli BL21 CodonPlus DE3
Assay type: binding
Experimental: Human DRIP1 (UniProtID: O00429.4, residues 1-699), and human MiD49 (UnitProtIS: Q96C03.1, residues 126-454) was cloned into a pET15b vector as an N-terminal His-tag Fusion. All constructs were transformed in Escherichia coli host strain BL21 CodonPlus DE3. Bacteria was grown in LB media with 100 μg/ml ampicillin and 34 μg/ml chloramphenicol in an orbital shaker at 37° C. until OD600 reached 0.4, at which temperature was reduced to 16° C. Recombinant protein expression was expressed for 18 hr by the addition of IPTG at OD600 of about 0.8. All cultures were spun down and bacterial pellets were used for protein purification.
For His-DRP1, the pellets were resuspended in DRP-buffer A (20 mM Tris, 500 KCl, 1.89 β-ME, pH 8.0) and protease inhibitor cocktail (Roche), followed by cell disruption by sonication (400 W, pulse 3 sec on, 3 sec off, total 20 min). The lysate was centrifuged at 20,000 g and then supernatant applied to a preequilibrated Ni-NTA column with DRP-buffer A. The column was extensively washed with buffer A containing 50 mM imidazole. Purified His-DRP1 was eluted with DRP-buffer A containing 250 mM imidazole and dialyzed overnight at 4° C. (18 kDa cutoff) against DRP-buffer A to remove imidazole. For AlphaLISA, the His tag was retained on DRP1 full-length.
For MiD49-GST, the bacterial pellets were resuspended and sonicated in MID lysis buffer (25 mM Tris-HCl, pH 7.5, 500 mM NaCl, 5% glycerol, 1 mM TCEP, and 0.5% CHAPS). The lysate was pre-cleared at 20,300 g before applying to a glutathione column. Unbound proteins were washed using MID-buffer A (25 mM Tris-HCl, pH 7.5, 300 mM NaCl, 5% glycerol, 1 mM TCEP) and MID-buffer B (25 mM Tris-HCl, pH 7.5, 300 mM NaCl, 5% glycerol, 1 mM TCEP, 1 mM GSH). The protein was eluted with MID-buffer C (25 mM Tris-HCl, pH 7.5, 300 mM NaCl, 5% glycerol, 1 mM TCEP, 10 mM GSH). The target protein was concentrated in the ultra-filtration tube with MW cutoff 30 kDa and further purified by size-exclusion chromatography on a Superdex-200 column (GE Healthcare) in buffer A. Fractions containing MiD49-GST (126-454) were pooled, concentrated, flash-frozen as single-use aliquots in liquid nitrogen and stored at −80° C.
A total of 100 nl of compounds were plated in a 384-well AlphaPlate (PerkinElmer, Waltham, MA) at concentrations 100 uM to […] in DMSO (dilution by 3.165 for 11 concentration levels). Recombinant His-DRP1 (200 nM), MiD49-GST (20 nM), and GMP-PNP (100 uM) were mixed in assay buffer (PBS with 1.5% BSA, 1 mM DTT). Five microliters of the protein mixture were added to the plate and incubate at room temperature for 30 min. Glutathione donor beads and nickel chelate acceptor beads were diluted and mixed in assay buffer to obtain 40 μg/ml of each bead. Five microliters of the mixed beads were added to each well on the microplate leading to a final bead concentration of 20 µg/ml per well. The sealed plate was incubated at room temperature for 60 min and protected from light. The AlphaLISA signal was detected with an EnVision Multilabel Reader (excitation at 680 and emission 615 nm). GraphPad Prism was used to calculate the IC50 by applying sigmoidal dose-response fit (variable slope).

T1 sequence (O00429 1-699 isoform O00429-4): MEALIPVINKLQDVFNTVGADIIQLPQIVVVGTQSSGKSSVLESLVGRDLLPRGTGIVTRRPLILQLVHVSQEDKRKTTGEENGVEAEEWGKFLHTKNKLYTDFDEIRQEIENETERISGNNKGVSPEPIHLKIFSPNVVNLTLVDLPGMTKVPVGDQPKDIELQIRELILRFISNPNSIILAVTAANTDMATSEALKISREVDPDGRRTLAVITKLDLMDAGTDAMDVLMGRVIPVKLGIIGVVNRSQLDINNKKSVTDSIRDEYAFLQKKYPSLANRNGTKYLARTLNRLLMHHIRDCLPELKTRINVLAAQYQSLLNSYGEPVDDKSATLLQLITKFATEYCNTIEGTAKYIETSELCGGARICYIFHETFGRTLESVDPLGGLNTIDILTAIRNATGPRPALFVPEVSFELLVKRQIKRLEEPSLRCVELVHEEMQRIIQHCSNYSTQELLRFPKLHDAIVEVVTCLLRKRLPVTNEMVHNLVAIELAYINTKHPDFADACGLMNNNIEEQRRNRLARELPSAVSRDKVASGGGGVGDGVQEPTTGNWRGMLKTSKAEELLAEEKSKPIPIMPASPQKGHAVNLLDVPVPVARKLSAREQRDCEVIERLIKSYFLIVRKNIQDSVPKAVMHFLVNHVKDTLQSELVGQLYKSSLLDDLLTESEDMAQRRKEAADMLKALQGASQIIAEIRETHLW

IC50	SMILES
1 to 10 µM	COC[C@H](C)Oc1cc(-c2cncs2)nc2ccc(NC(=O)[C@H](C)OC)cc12 [Example 50, (S)-2-methoxy-N-(4-(((S)-1-methoxypropan-2-yl)oxy)-2-(thiazol-5-yl)quinolin-6-yl)propanamide]
> 10 µM	COC[C@@H](C)Oc1cc(-c2cncs2)nc2ccc(NC(=O)[C@H](C)OC)cc12 [Example 51, (S)-2-methoxy-N-(4-(((R)-1-methoxypropan-2-yl)oxy)-2-(thiazol-5-yl)quinolin-6-yl)propanamide]

Further lines, the compound ahead of its results:

SMILES	IC50
COC[C@@H](C)Oc1cc(-c2cncs2)nc2ccc(NC(=O)C(C)C#N)cc12 (stereo partly drawn) [Example 49, 2-cyano-N-(4-(((R)-1-methoxypropan-2-yl)oxy)-2-(thiazol-5-yl)quinolin-6-yl)propanamide]	1 to 10 µM
COC[C@@H](C)Oc1cc(-c2cncs2)nc2ccc(NC(=O)C3COC3)cc12 [Example 52, (R)—N-(4-((1-methoxypropan-2-yl)oxy)-2-(thiazol-5-yl)quinolin-6-yl)oxetane-3-carboxamide]	1 to 10 µM
COCCOc1cc(-c2cnn(C)c2)nc2ccc(NC(=O)C3COC3)cc12 [Example 53, N-(4-(2-methoxyethoxy)-2-(1-methyl-1H-pyrazol-4-yl)quinolin-6-yl)oxetane-3-carboxamide]	0.5 to 1 µM
CCOc1cc(-n2cnc(C)c2)nc2c(C)cc(NC(=O)C3COC3)cc12 [Example 54, N-(4-ethoxy-8-methyl-2-(4-methyl-1H-imidazol-1-yl)quinolin-6-yl)oxetane-3-carboxamide]	1 to 10 µM
